Experimental data as given in patent publication US8426447B2, “Spiro-tricyclic ring compounds as beta-secretase modulators and methods of use” (Amgen Inc., priority 2008, dated 2013).
Values belong to the compound of their own block, whether it stands above or below them.

Legend:
[1] = molecular target: T1, BACE1 (Homo sapiens, UniProt P56817); experiment: In Vitro Enzymatic BACE FRET (Fluorescence Resonance Energy Transfer) Assay; assay type: biochemical; settings: read-out: BACE1 FRET assay
In short: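 Buffer 0.05 M acetate pH 4.2 with 10% DMSO final and 100 uM genapol; reaction started with 50 nM FRET peptide substrate (fluorophore/quencher flanking BACE cleavage site), incubated one hour. Stopped with Tris buffer raising pH to neutrality, then fluorescence read.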

[2] = molecular target: T1, BACE1; experiment: In Vitro BACE Cell-based Assay (HEK cell assay): Aβ40 in conditioned medium of cells stably expressing Amyloid Precursor Protein, sandwich ELISA; settings: read-out: HEK cell assay
In short: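 HEK cells stably expressing APP were treated 24 h with compound in 10-point dose response starting at 100 or 10 μM (0.1% DMSO). Secreted Aβ40 quantified by sandwich ELISA (pAb40 capture, biotinylated 6E10 detection, europium time-resolved fluorescence), with IC50 derived from percent inhibition versus concentration.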

[3] = in vitro BACE FRET enzyme assay, IC50 class symbols
[4] = HEK cell-based assay, Aβ40 in conditioned medium, IC50 class symbols

T1 sequence (P56817 46-501, species assumed): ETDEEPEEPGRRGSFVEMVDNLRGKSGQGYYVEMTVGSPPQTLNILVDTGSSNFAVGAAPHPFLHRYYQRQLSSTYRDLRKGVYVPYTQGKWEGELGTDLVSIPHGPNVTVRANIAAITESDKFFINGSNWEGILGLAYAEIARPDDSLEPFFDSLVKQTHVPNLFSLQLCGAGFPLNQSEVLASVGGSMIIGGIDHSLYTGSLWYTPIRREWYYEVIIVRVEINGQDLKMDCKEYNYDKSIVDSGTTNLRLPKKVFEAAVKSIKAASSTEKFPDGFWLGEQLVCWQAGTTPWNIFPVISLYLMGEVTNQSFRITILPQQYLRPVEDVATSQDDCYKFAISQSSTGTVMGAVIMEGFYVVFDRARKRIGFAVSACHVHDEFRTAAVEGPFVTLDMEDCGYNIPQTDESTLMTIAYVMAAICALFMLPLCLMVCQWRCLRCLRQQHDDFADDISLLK

Structure (SMILES): CC1(COc2ccc3c(c2)[C@]2(COC(N)=N2)c2cc(-c4cncnc4)cc(F)c2O3)COC1 [compound 796]
IC50 ([1]; Table IV, class symbols): < 0.1 µM
IC50 ([2]; Table IV, class symbols): 0.1 to 1 µM

Structure (SMILES): CN(C)CC#Cc1ccc2c(c1)[C@@]1(COC(N)=N1)c1cc(-c3cncnc3)ccc1O2 [117b]
IC50 ([1]; Table III, IC50's in uM ranges): 1 to 5 µM
IC50 ([2]; Table III, IC50's in uM ranges): 0.1 to 1 µM

Structure (SMILES): NC1=N[C@@]2(CO1)c1cc(-c3cncnc3)ccc1Oc1cnc(Cl)cc12 [compound 500]
IC50 [1]: 0.1 to 1 µM
IC50 ([2]; HEK cells): 1 to 5 µM

Structure (SMILES): CC(C)(C)COc1ccc2c(c1)[C@]1(COC(N)=N1)c1cc(-c3cnccn3)ccc1O2 [Example 131, (S)-2′-(neopentyloxy)-7′-(pyrazin-2-yl)-5H-spiro[oxazole-4,9′-xanthen]-2-amine]
IC50 ([1]; Table III, IC50's in uM ranges): < 0.1 µM
IC50 ([2]; Table III, IC50's in uM ranges): < 0.1 µM

Structure (SMILES): NC1=N[C@@]2(CO1)c1cc(C#CC3CC3)ccc1Oc1ncc(N3CCOCC3)cc12 [compound 607]
IC50 ([1]; Table IV, class symbols): < 0.1 µM
IC50 ([2]; Table IV, class symbols): < 0.1 µM

Structure (SMILES): CC(C)(C)COc1ccc2c(c1)[C@]1(COC(N)=N1)c1cc(CO)ccc1O2 [compound 828]
IC50 ([1]; Table IV, class symbols): 1 to 5 µM
IC50 ([2]; Table IV, class symbols): 1 to 5 µM

Structure (SMILES): CC(C)(O)COc1ccc2c(c1)[C@]1(COC(N)=N1)c1cc(-c3cccnc3F)ccc1O2 [compound 906]
IC50 ([1]; Table IV, class symbols): < 0.1 µM
IC50 ([2]; Table IV, class symbols): < 0.1 µM

Structure (SMILES): CC(C)(C)C#Cc1ccc2c(n1)[C@]1(COC(N)=N1)c1cc(-c3cccnc3)ccc1O2 [compound 854]
IC50 ([1]; Table IV, class symbols): < 0.1 µM
IC50 ([2]; Table IV, class symbols): < 0.1 µM

Structure (SMILES): COc1ncccc1-c1ccc2c(c1)[C@@]1(COC(N)=N1)c1cc(C#CC(C)(C)OC)cnc1O2 [compound 806]
IC50 ([1]; Table IV, class symbols): < 0.1 µM
IC50 ([2]; Table IV, class symbols): < 0.1 µM

Structure (SMILES): NC1=N[C@@]2(CO1)c1cc(Br)ccc1Oc1ccc(C#CC3(O)COC3)cc12 [compound 682]
IC50 [1]: 1 to 5 µM
IC50 [2]: > 5 µM

Structure (SMILES): CC(C)(C)COc1ccc2c(c1)[C@]1(COC(N)=N1)c1cc(-c3c[nH]cn3)ccc1O2 [compound 978]
IC50 [1]: 0.1 to 1 µM
IC50 [2]: 1 to 5 µM

Structure (SMILES): CC(C)(C)CCc1ccc2c(c1)[C@]1(COC(N)=N1)c1cc(Oc3ccccn3)ccc1O2 [compound 205]
IC50 ([1]; Table III, IC50's in uM ranges): < 0.1 µM
IC50 ([2]; Table III, IC50's in uM ranges): 0.1 to 1 µM

Structure (SMILES): CC1(C#Cc2cc(F)c3c(c2)[C@]2(COC(N)=N2)c2cc(-c4cncnc4)ccc2O3)COC1 [compound 475]
IC50 [1]: < 0.1 µM
IC50 ([2]; HEK cells): < 0.1 µM

Further lines, results first:

IC50 [1]: 0.1 to 1 µM
IC50 [2]: 1 to 5 µM
Structure (SMILES): CC(C)(C)C#Cc1cnc2c(c1)[C@@]1(COC(N)=N1)c1cc(Oc3ccccn3)ccc1O2 [compound 927]

IC50 [1, 3]: < 0.1 µM
IC50 [2, 4]: < 0.1 µM
Structure (SMILES): NC1=N[C@@]2(CO1)c1cc(-c3cccnc3F)ccc1Oc1ccc(C3=CCOCC3)nc12 [compound 400]

IC50 [1]: 0.1 to 1 µM
IC50 [2]: 0.1 to 1 µM
Structure (SMILES): CCOc1ccc(-c2cnc3c(c2)[C@]2(COC(N)=N2)c2cc(OC)ccc2O3)cn1 [compound 667]

IC50 ([1]; Table III, IC50's in uM ranges): < 0.1 µM
IC50 ([2]; Table III, IC50's in uM ranges): 0.1 to 1 µM
Structure (SMILES): Cc1ccccc1-c1ccc2c(c1)[C@]1(COC(N)=N1)c1cc(-c3cncnc3)ccc1O2 [compound 220]

IC50 [1]: 1 to 5 µM
IC50 [2]: 1 to 5 µM
Structure (SMILES): NC1=N[C@]2(CO1)c1cc(-c3ccccc3)ccc1Oc1ncc(C3=CCOCC3)cc12 [compound 718]

IC50 ([1]; Table III, IC50's in uM ranges): < 0.1 µM
IC50 ([2]; Table III, IC50's in uM ranges): 0.1 to 1 µM
Structure (SMILES): NC1=NC2(CO1)c1cc(-c3ccc(F)nc3)ccc1Oc1ccc(-c3ccc(F)nc3)cc12 [compound 196]

IC50 [1]: < 0.1 µM
IC50 ([2]; HEK cells): < 0.1 µM
Structure (SMILES): N#Cc1ccc(-c2cnc3c(c2)[C@]2(COC(N)=N2)c2cc(-c4cncnc4)ccc2O3)cc1 [compound 473]

IC50 ([1]; Table IV, class symbols): < 0.1 µM
IC50 ([2]; Table IV, class symbols): < 0.1 µM
Structure (SMILES): CC1(C)CN(c2ccc3c(c2)[C@]2(COC(N)=N2)c2cc(-c4cncnc4)ccc2O3)C1 [compound 561]

IC50 [1]: < 0.1 µM
IC50 [2]: < 0.1 µM
Structure (SMILES): NC1=N[C@@]2(CO1)c1cc(-c3cccnc3)ccc1Oc1cnc([C@@H]3CCCCO3)cc12 [compound 696]

IC50 ([1]; Table II): < 0.1 µM
IC50 ([2]; Table II, Aβ40, 24 h incubation): < 0.1 µM
Structure (SMILES): NC1=N[C@]2(CO1)c1cc(OCC3CCCO3)ccc1Oc1ccc(-c3cncnc3)cc12 (stereo partly drawn) [Example 60, (4S)-2′-(5-pyrimidinyl)-7′-(tetrahydro-2-furanylmethoxy)spiro[1,3-oxazole-4,9′-xanthen]-2-amine]

IC50 ([1]; Table III, IC50's in uM ranges): < 0.1 µM
IC50 ([2]; Table III, IC50's in uM ranges): < 0.1 µM
Structure (SMILES): CC(C)(O)COc1ccc2c(c1)[C@]1(COC(N)=N1)c1cc(-c3cncc(F)c3)ccc1O2 [compound 224]

IC50 [1]: < 0.1 µM
IC50 ([2]; HEK cells): < 0.1 µM
Structure (SMILES): NC1=N[C@@]2(CO1)c1cc(-c3cccnc3)ccc1Oc1cnc(N3CCNCC3)cc12 [compound 439]

IC50 [1]: < 0.1 µM
IC50 [2]: < 0.1 µM
Structure (SMILES): NC1=N[C@@]2(CO1)c1cc(-c3cncnc3)ccc1Oc1ccc(-c3ccc(F)nc3)cc12 [compound 991]

IC50 [1, 3]: < 0.1 µM
IC50 [2, 4]: < 0.1 µM
Structure (SMILES): CC(C)(C#N)COc1cnc2c(c1)[C@]1(COC(N)=N1)c1cc(-c3cccnc3)ccc1O2 [compound 410]
